Source: patent publication US20260132132A1, “3A,4,5,6-TETRAHYDRO-1 H-PYRAZOLO[3,4-C]PYRIDIN-7(7AH)-ONE DERIVATIVES AS FACTOR XIIA INHIBITORS” (KALVISTA PHARMACEUTICALS LIMITED, priority 2022, published 2026)

What was measured:
[1] = biological target: T1, Human Factor XIIa (hFXIIa) (Homo sapiens, UniProt P00748); test: Determination of Human Factor XIIa (hFXIIa) inhibition, fluorogenic substrate IC50 assay; assay type: biochemical; details: fluorogenic substrate H-DPro-Phe-Arg-AFC at Km, 25° C., read-out: Human FXIIa IC50
T1 construct: purchased Enzyme Research Laboratories
T1 sequence (P00748 373-615 limits assumed): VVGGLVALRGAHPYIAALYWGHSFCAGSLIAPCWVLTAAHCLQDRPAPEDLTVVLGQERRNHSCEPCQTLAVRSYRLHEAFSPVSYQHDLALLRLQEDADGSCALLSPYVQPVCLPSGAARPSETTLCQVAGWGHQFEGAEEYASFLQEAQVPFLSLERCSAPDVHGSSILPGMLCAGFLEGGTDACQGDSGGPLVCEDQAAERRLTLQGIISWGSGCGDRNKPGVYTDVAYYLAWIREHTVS
T1 sequence (P00748 20-372 partner limits assumed): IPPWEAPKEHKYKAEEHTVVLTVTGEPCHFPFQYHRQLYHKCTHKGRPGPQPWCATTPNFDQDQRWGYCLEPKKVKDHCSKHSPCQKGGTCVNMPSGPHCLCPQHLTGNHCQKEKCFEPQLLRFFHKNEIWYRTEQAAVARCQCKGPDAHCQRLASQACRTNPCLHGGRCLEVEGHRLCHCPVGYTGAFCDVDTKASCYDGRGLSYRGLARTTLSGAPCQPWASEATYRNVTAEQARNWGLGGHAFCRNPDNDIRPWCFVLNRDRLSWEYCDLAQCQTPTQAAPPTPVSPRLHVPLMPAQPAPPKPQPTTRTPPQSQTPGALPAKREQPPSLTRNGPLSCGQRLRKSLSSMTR
Description: Determination of Human Factor XIIa (hFXIIa) inhibition
The Km for the cleavage of the substrate by hFXIIa was determined by standard transformation of the Michaelis-Menten equation, with subsequent inhibition assays performed at substrate Km concentration.

FXa = FXa (Homo sapiens, UniProt P00742); test: Related protease inhibition: FXa, fluorogenic substrate; assay type: biochemical; details: fluorogenic substrate at Km, 25° C.; H1-H3 = % activity at 40 μM
Description: Human serine protease enzyme Plasma Kallikrein, KLK1, FXa, Plasmin, Thrombin and Trypsin were assayed for enzymatic activity using an appropriate fluorogenic substrate at Km concentration, FXIa at fixed substrate concentration of 100 μM and various concentrations of the test compound.

FXa, sequence (P00742 235-488 limits assumed): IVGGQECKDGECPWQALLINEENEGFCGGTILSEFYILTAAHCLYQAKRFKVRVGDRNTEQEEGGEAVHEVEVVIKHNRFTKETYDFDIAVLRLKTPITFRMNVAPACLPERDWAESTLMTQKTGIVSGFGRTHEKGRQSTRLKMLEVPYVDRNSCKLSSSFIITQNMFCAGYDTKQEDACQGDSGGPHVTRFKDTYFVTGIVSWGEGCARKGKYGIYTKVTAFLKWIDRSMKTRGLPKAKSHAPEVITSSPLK
FXa, sequence (P00742 41-179 partner limits assumed): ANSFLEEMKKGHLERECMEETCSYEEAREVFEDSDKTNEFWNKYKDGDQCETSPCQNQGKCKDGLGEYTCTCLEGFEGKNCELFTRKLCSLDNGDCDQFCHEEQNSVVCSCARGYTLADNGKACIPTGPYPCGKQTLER

| SMILES | IC50 [1] [µM] | IC50 (FXa) [µM] |
| --- | --- | --- |
| CN1CCc2ccc(N3CCc4c(C(=O)NCCF)nn(-c5cccc(Cl)c5)c4C3=O)cc2C1=O [Example 1384, 1-(3-chlorophenyl)-N-(2-fluoroethyl)-6-(2-methyl-1-oxo-1,2,3,4-tetrahydroisoquinolin-7-yl)-7-oxo-4,5,6,7-tetrahydro-1H-pyrazolo[3,4-c]pyridine-3-carboxamide] | 0.3 to 1 | > 40 |
| CC(=O)NCc1nn(-c2cccc(Cl)c2)c2c1CCN(c1ccc3c(c1)C(=O)N(C)CC3)C2=O [Example 1385, N-((1-(3-chlorophenyl)-6-(2-methyl-1-oxo-1,2,3,4-tetrahydroisoquinolin-7-yl)-7-oxo-4,5,6,7-tetrahydro-1H-pyrazolo[3,4-c]pyridin-3-yl)methyl)acetamide] | 1 to 3 | 3 to 10 |
| CN1CCc2ccc(N3CCc4c(C(=O)NCCC(=O)O)nn(-c5cccc(Cl)c5)c4C3=O)cc2C1=O [Example 1386, 3-(1-(3-chlorophenyl)-6-(2-methyl-1-oxo-1,2,3,4-tetrahydroisoquinolin-7-yl)-7-oxo-4,5,6,7-tetrahydro-1H-pyrazolo[3,4-c]pyridine-3-carboxamido)propanoic acid] | 1 to 3 | > 40 |
| C[C@@H](NC(=O)c1nn(-c2cccc(Cl)c2)c2c1CCN(c1ccc3c(c1)C(=O)N(C)CC3)C2=O)C(=O)O [Example 1387, (1-(3-chlorophenyl)-6-(2-methyl-1-oxo-1,2,3,4-tetrahydroisoquinolin-7-yl)-7-oxo-4,5,6,7-tetrahydro-1H-pyrazolo[3,4-c]pyridine-3-carbonyl)-D-alanine] | 1 to 3 | 10 to 40 |
| CN1CCc2ccc(N3CCc4c(C#N)nn(-c5cccc(Cl)c5)c4C3=O)cc2C1=O [Example 1388, 1-(3-chlorophenyl)-6-(2-methyl-1-oxo-1,2,3,4-tetrahydroisoquinolin-7-yl)-7-oxo-4,5,6,7-tetrahydro-1H-pyrazolo[3,4-c]pyridine-3-carbonitrile] | 0.3 to 1 | 1 to 3 |
| CCNC(=O)c1nn(-c2cccc(Cl)c2)c2c1CCN(c1cccc(N3CC4(CC4)CC3=O)c1)C2=O [Example 1389, 1-(3-chlorophenyl)-N-ethyl-7-oxo-6-(3-(6-oxo-5-azaspiro[2.4]heptan-5-yl)phenyl)-4,5,6,7-tetrahydro-1H-pyrazolo[3,4-c]pyridine-3-carboxamide] | 10 to 40 | > 40 |
| CCNC(=O)c1nn(-c2cccc(Cl)c2)c2c1CCN(c1cccc(N3CCCN(C)C3=O)c1)C2=O [Example 1390, 1-(3-chlorophenyl)-N-ethyl-6-(3-(3-methyl-2-oxotetrahydropyrimidin-1(2H)-yl)phenyl)-7-oxo-4,5,6,7-tetrahydro-1H-pyrazolo[3,4-c]pyridine-3-carboxamide] | 1 to 3 | > 40 |
| C[C@H](NC(=O)c1nn(-c2cccc(Cl)c2)c2c1CCN(c1ccc3c(c1)C(=O)N(C)CC3)C2=O)C(=O)O [Example 1391, (1-(3-chlorophenyl)-6-(2-methyl-1-oxo-1,2,3,4-tetrahydroisoquinolin-7-yl)-7-oxo-4,5,6,7-tetrahydro-1H-pyrazolo[3,4-c]pyridine-3-carbonyl)-L-alanine] | 0.3 to 1 | > 40 |
| CCNC(=O)c1nn(-c2cccc(Cl)c2)c2c1CCN(c1ccc3c(c1)C(=O)N(CCO)[C@H](C)CO3)C2=O [Example 1392, (R)-1-(3-chlorophenyl)-N-ethyl-6-(4-(2-hydroxyethyl)-3-methyl-5-oxo-2,3,4,5-tetrahydrobenzo[f][1,4]oxazepin-7-yl)-7-oxo-4,5,6,7-tetrahydro-1H-pyrazolo[3,4-c]pyridine-3-carboxamide] | 3 to 10 | > 40 |
| Cc1cc(CNC(=O)c2nn(-c3cccc(Cl)c3)c3c2CCN(c2ccc4c(c2)C(=O)N(CC(N)=O)CCO4)C3=O)nn1C [Example 1393, 6-(4-(2-amino-2-oxoethyl)-5-oxo-2,3,4,5-tetrahydrobenzo[f][1,4]oxazepin-7-yl)-1-(3-chlorophenyl)-N-((1,5-dimethyl-1H-pyrazol-3-yl)methyl)-7-oxo-4,5,6,7-tetrahydro-1H-pyrazolo[3,4-c]pyridine-3-carboxamide] | 0.01 to 0.1 | 1 to 3 |
| Cc1c(Cl)c(CNC(=O)c2nn(-c3cccc(Cl)c3)c3c2CCN(c2ccc4c(c2)C(=O)N(CC(N)=O)CCO4)C3=O)nn1C [Example 1394, 6-(4-(2-amino-2-oxoethyl)-5-oxo-2,3,4,5-tetrahydrobenzo[f][1,4]oxazepin-7-yl)-N-((4-chloro-1,5-dimethyl-1H-pyrazol-3-yl)methyl)-1-(3-chlorophenyl)-7-oxo-4,5,6,7-tetrahydro-1H-pyrazolo[3,4-c]pyridine-3-carboxamide] | 0.01 to 0.1 | 0.3 to 1 |
| Cc1cc(CNC(=O)c2nn(-c3cccc(Cl)c3)c3c2CCN(c2ccc4c(c2)C(=O)N(C)[C@@H](CO)CO4)C3=O)nn1C [Example 1395, (S)-1-(3-chlorophenyl)-N-((1,5-dimethyl-1H-pyrazol-3-yl)methyl)-6-(3-(hydroxymethyl)-4-methyl-5-oxo-2,3,4,5-tetrahydrobenzo[f][1,4]oxazepin-7-yl)-7-oxo-4,5,6,7-tetrahydro-1H-pyrazolo[3,4-c]pyridine-3-carboxamide] | 1 to 3 | > 40 |
| Cc1ccncc1CNC(=O)c1nn(-c2cccc(Cl)c2)c2c1CCN(c1ccc3c(c1)C(=O)N(C)[C@@H](CO)CO3)C2=O [Example 1396, (S)-1-(3-chlorophenyl)-6-(3-(hydroxymethyl)-4-methyl-5-oxo-2,3,4,5-tetrahydrobenzo[f][1,4]oxazepin-7-yl)-N-((4-methylpyridin-3-yl)methyl)-7-oxo-4,5,6,7-tetrahydro-1H-pyrazolo[3,4-c]pyridine-3-carboxamide] | 0.3 to 1 | > 40 |
| CCNC(=O)c1nn(-c2cccc(Cl)c2)c2c1CCN(c1cccc(N3C(=O)CC[C@H]3C)c1)C2=O [Example 1397, (R)-1-(3-chlorophenyl)-N-ethyl-6-(3-(2-methyl-5-oxopyrrolidin-1-yl)phenyl)-7-oxo-4,5,6,7-tetrahydro-1H-pyrazolo[3,4-c]pyridine-3-carboxamide] | 10 to 40 | > 40 |
| CCNC(=O)c1nn(-c2cccc(Cl)c2)c2c1CCN(c1cccc(N3C(=O)CC[C@@H]3C)c1)C2=O [Example 1398, (S)-1-(3-chlorophenyl)-N-ethyl-6-(3-(2-methyl-5-oxopyrrolidin-1-yl)phenyl)-7-oxo-4,5,6,7-tetrahydro-1H-pyrazolo[3,4-c]pyridine-3-carboxamide] | 10 to 40 | > 40 |
| CCNC(=O)c1nn(-c2cccc(Cl)c2)c2c1CCN(c1cccc(-n3ccn(C)c3=O)c1)C2=O [Example 1399, 1-(3-chlorophenyl)-N-ethyl-6-(3-(3-methyl-2-oxo-2,3-dihydro-1H-imidazol-1-yl)phenyl)-7-oxo-4,5,6,7-tetrahydro-1H-pyrazolo[3,4-c]pyridine-3-carboxamide] | 1 to 3 | > 40 |
| CCNC(=O)c1nn(-c2cccc(Cl)c2)c2c1CCN(c1cccc(N3CCC4(CC4)C3=O)c1)C2=O [Example 1400, 1-(3-chlorophenyl)-N-ethyl-7-oxo-6-(3-(4-oxo-5-azaspiro[2.4]heptan-5-yl)phenyl)-4,5,6,7-tetrahydro-1H-pyrazolo[3,4-c]pyridine-3-carboxamide] | 1 to 3 | > 40 |
